Measured values published in PubChem BioAssay AID1963873 (Molecular Pharmacology Branch, DTP, NCI, 2024).
“And” between values parts separate entries of the source, which are not always exact repeats. Identical values can stand only once.

System: 276233-004-R-J1-PDC KRAS spheroids with HUVEC/MSC, viability
Experiment: Anticancer human tumor 276233-004-R-J1-PDC patient-derived colon adenocarcinoma cell line growth inhibition [KRAS2]
Conditions: for viability, T/C: stronger effect = lower value
From the text: Multicellular complex tumor spheroid response to RAS pathway inhibitors in combination with a targeted agents in patient-derived cell lines with oncogenic KRAS variants from multiple cancer types
A high-throughput screen of multi-cell type tumor spheroids was designed to identify active combinations of targeted small molecules and KRAS pathway inhibitors. Complex spheroids include a stromal component modeled by human endothelial cells (HUVEC) and fibroblasts modeled by human mesenchymal stem cells (MSCs). The concentration ranges selected for each drug and investigational agent were based upon clinically achievable concentrations if the clinical Cmax of the agent was known.
Compounds. The drugs and investigational agents: BI-3406 (NSC825286), BAY-293 (NSC824723), batoprotafib (TNO155; NSC825523), sotorasib (AMG 510; NSC818433), MRTX1257 (NSC819558), elimusertib (BAY 1895344; NSC800525), molibresib (GSK525762; NSC774829), temuterkib (LY3214996; NSC803410), venetoclax (NSC766270), alisertib (NSC759677), olaparib (NSC753686), talazoparib (NSC767125), erdafitinib (NSC781556), ipatasertib (NSC767898), cabozantinib (NSC761068), nintedanib (NSC756659), abemaciclib (NSC768073), docetaxel (NSC628503), trametinib (NSC758246), and sapanisertib (NSC764658) were obtained from the National Cancer Institute (NCI) Developmental Therapeutics Program Chemical Repository. The FDA-approved anticancer drug set is available from the Developmental Therapeutics Program. […] The stock solutions were prepared in dimethyl sulfoxide (DMSO, Sigma-Aldrich, St. Louis, MO, cat. D2650) at 800-fold the tested concentration and stored at -70 degrees C prior to their use. All drugs and investigational agents were tested over a range starting from a high concentration at or near the clinical Cmax and decreasing in half-log increments. If the clinical Cmax for an agent had not been determined, the highest concentration tested was 10 microM.
Cell Culture. All cells were maintained in an incubator at 37 degrees C and 5% CO2 with 95% humidity. The PDC lines were cultured according to standard operating procedures established by the NCI PDMR (https://pdmr.cancer.gov/sops/default.htm). Briefly, all PDCs were thawed and cultured in Matrigel-coated flasks prepared with a working solution of 1X Ham's F-12 nutrient mix, without supplementation (Invitrogen, Waltham, MA, cat. 11765054), 100 U/mL penicillin-streptomycin (Invitrogen, cat. 15140122), and 2.5% Matrigel (Corning Inc., Corning, NY, cat. 354248) for the first three passages. All PDCs were cultured in complete DMEM/F-12 media containing advanced DMEM/F-12 (Invitrogen, cat. 12634028), 4.9% defined fetal bovine serum, heat inactivated (HyClone Laboratories Inc., Logan, UT, cat. SH30070.03HI), 389 ng/mL hydrocortisone (Sigma-Aldrich, cat. H4001), 9.7 ng/mL human EGF recombinant protein (Invitrogen, cat. PHG0313), 23.4 microg/mL adenine (Sigma-Aldrich, cat. A2786), 97.3 U/mL penicillin-streptomycin (Invitrogen, cat. 15140122), 1.9 mM L-glutamine (Invitrogen, cat. 25030081), and 9.7 microM Y-27632 dihydrochloride (Tocris Bioscience, Bristol, United Kingdom, cat. 1254). The PDCs were cultured in complete DMEM/F12 media without 9.7 microM Y-27632 dihydrochloride for at least two passages prior to the screen. The established cell line HOP-62 was cultured in RPMI 1640 medium, HEPES (Invitrogen, cat. 22400105) with 10% defined fetal bovine serum (HyClone Laboratories Inc., cat. SH30070.03) and 2 mM L-glutamine (Invitrogen, cat. 25030081). The pooled donor HUVEC were cultured in endothelial cell growth medium 2 (PromoCell, Heidelberg, Germany, cat. C-22011) and the hMSC were cultured in mesenchymal stem cell growth medium 2 (PromoCell, cat. C-28009). For all experiments, HUVEC and hMSC were used at passages </=5, while the malignant cell lines were used at passages </=15. […]

[1] = curve of first compound, second compound 0.1 µM
[2] = curve of first compound, second compound 0.316 µM
[3] = curve of first compound, second compound 1 µM
[4] = curve of first compound, second compound 3.16 µM
[5] = curve of first compound, second compound 10 µM
[6] = second compound 0.1 µM, first compound 0.01 µM
[7] = second compound 0.1 µM, first compound 0.0316 µM
[8] = second compound 0.316 µM, first compound 0.01 µM
[9] = second compound 0.316 µM, first compound 0.0316 µM
[10] = second compound 1 µM, first compound 0.01 µM
[11] = second compound 1 µM, first compound 0.0316 µM
[12] = second compound 3.16 µM, first compound 0.01 µM
[13] = second compound 3.16 µM, first compound 0.0316 µM
[14] = second compound 10 µM, first compound 0.0316 µM
[15] = second compound 0.1 µM, first compound 0.1 µM
[16] = second compound 0.1 µM, first compound 0.316 µM
[17] = second compound 0.1 µM, first compound 1 µM
[18] = second compound 0.1 µM, first compound 3.16 µM
[19] = second compound 0.316 µM, first compound 0.1 µM
[20] = second compound 0.316 µM, first compound 0.316 µM
[21] = second compound 0.316 µM, first compound 1 µM
[22] = second compound 0.316 µM, first compound 3.16 µM
[23] = second compound 1 µM, first compound 0.1 µM
[24] = second compound 1 µM, first compound 0.316 µM
[25] = second compound 1 µM, first compound 1 µM
[26] = second compound 1 µM, first compound 3.16 µM
[27] = second compound 3.16 µM, first compound 0.1 µM
[28] = second compound 3.16 µM, first compound 0.316 µM
[29] = second compound 3.16 µM, first compound 1 µM
[30] = second compound 3.16 µM, first compound 3.16 µM
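Note: cells exposed to agents for seven days before viability read.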
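Throughout, for viability, T/C: 100% = DMSO vehicle control wells and lower values mean fewer viable cells.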

CC(=O)Nc1cccc(-n2c(=O)n(C3CC3)c(=O)c3c(Nc4ccc(I)cc4F)n(C)c(=O)c(C)c32)c1 + CNCc1ccccc1-c1csc(C(C)Nc2nc(C)nc3cc(OC)c(OC)cc23)c1 showed an IC50 [1] of 5.93 nM, an IC50 [2] of 4.86 nM and an IC50 [3] of 1.42 nM. The IC50 [4] was under 0.1 nM, the IC50 [5] was under 0.1 nM and the viability, T/C (second compound 0.1 µM, first compound 0.0001 µM) was 97.3%. The viability, T/C (second compound 0.1 µM, first compound 0.000316 µM) was 77.5%, the viability, T/C (second compound 0.1 µM, first compound 0.001 µM) was 90.5% and the viability, T/C (second compound 0.1 µM, first compound 0.00316 µM) was 59.2%. It also gave a viability, T/C [6] of 40.1%, a viability, T/C [7] of 15.5% and a viability, T/C (second compound 0.316 µM, first compound 0.0001 µM) of 93.5%. For the same molecule, the viability, T/C (second compound 0.316 µM, first compound 0.000316 µM) was 82.1%, the viability, T/C (second compound 0.316 µM, first compound 0.001 µM) was 83.7% and the viability, T/C (second compound 0.316 µM, first compound 0.00316 µM) was 57%. It also gave a viability, T/C [8] of 35.2%, a viability, T/C [9] of 17.3% and a viability, T/C (second compound 1 µM, first compound 0.0001 µM) of 69.4%. The viability, T/C (second compound 1 µM, first compound 0.000316 µM) was 56.5%, the viability, T/C (second compound 1 µM, first compound 0.001 µM) was 61.1% and the viability, T/C (second compound 1 µM, first compound 0.00316 µM) was 27.6%. The viability, T/C [10] was 23.1%, the viability, T/C [11] was 9.49% and the viability, T/C (second compound 3.16 µM, first compound 0.0001 µM) was 5.56%. For the same molecule, the viability, T/C (second compound 3.16 µM, first compound 0.000316 µM) was 0.89%, the viability, T/C (second compound 3.16 µM, first compound 0.001 µM) was 3.86% and the viability, T/C (second compound 3.16 µM, first compound 0.00316 µM) was 1.97%. The viability, T/C [12] was 0.56%, the viability, T/C [13] was 0.49% and the viability, T/C (second compound 10 µM, first compound 0.0001 µM) was 0.21%. It also gave a viability, T/C (second compound 10 µM, first compound 0.000316 µM) of 2.92%, a viability, T/C (second compound 10 µM, first compound 0.001 µM) of 4.6% and a viability, T/C (second compound 10 µM, first compound 0.00316 µM) of 3.3%. It also gave a viability, T/C (second compound 10 µM, first compound 0.01 µM) of 0.22% and a viability, T/C [14] of 3.97%.
In the case of CC1COCCN1c1cc(-c2ccnn2C)c2ccnc(-c3ccn[nH]3)c2n1 (stereo not drawn), the viability, T/C (compound 0.01 µM) is reported as 96.2% [middle of 5 runs], the viability, T/C (compound 0.1 µM) is reported as 82% [middle of 5 runs] and the IC50 (curve of compound) is reported as > 3160 nM and 735 nM.
With CCNC(=O)CC1N=C(c2ccc(Cl)cc2)c2cc(OC)ccc2-n2c(C)nnc21 (stereo not drawn) + C=CC(=O)N1CCN(c2nc(=O)n(-c3c(C)ccnc3C(C)C)c3nc(-c4c(O)cccc4F)c(F)cc23)C(C)C1 the IC50 [1] was over 10000 nM, the IC50 [2] was over 10000 nM and the IC50 [3] was over 10000 nM. For the same molecule, the IC50 [4] was over 10000 nM, the IC50 [5] was over 10000 nM and the viability, T/C [7] was 102%. The viability, T/C [15] was 86.5%, the viability, T/C [16] was 78.5% and the viability, T/C [17] was 76.6%. It also gave a viability, T/C [18] of 62.6%, a viability, T/C (second compound 0.1 µM, first compound 10 µM) of 65.4% and a viability, T/C [9] of 111%. The viability, T/C [19] was 92.8%, the viability, T/C [20] was 72% and the viability, T/C [21] was 81.5%. The viability, T/C [22] was 69.7%, the viability, T/C (second compound 0.316 µM, first compound 10 µM) was 79.3% and the viability, T/C [11] was 87.5%. For the same molecule, the viability, T/C [23] was 101%, the viability, T/C [24] was 72.7% and the viability, T/C [25] was 63.3%. For the same molecule, the viability, T/C [26] was 81%, the viability, T/C (second compound 1 µM, first compound 10 µM) was 71.5% and the viability, T/C [13] was 84.4%. For the same molecule, the viability, T/C [27] was 87.1%, the viability, T/C [28] was 108% and the viability, T/C [29] was 49.4%. For the same molecule, the viability, T/C [30] was 83.2%, the viability, T/C (second compound 3.16 µM, first compound 10 µM) was 69.3% and the viability, T/C [14] was 79.6%. It also gave a viability, T/C (second compound 10 µM, first compound 0.1 µM) of 63.3%, a viability, T/C (second compound 10 µM, first compound 0.316 µM) of 66.2% and a viability, T/C (second compound 10 µM, first compound 1 µM) of 61.3%. The viability, T/C (second compound 10 µM, first compound 3.16 µM) was 74.7% and the viability, T/C (second compound 10 µM, first compound 10 µM) was 54.2%.
In the case of CC1COCCN1c1cc(-c2ccnn2C)c2ccnc(-c3ccn[nH]3)c2n1 (stereo not drawn) + C=CC(=O)N1CCN(c2nc(OCC3CCCN3C)nc3c2CCN(c2cccc4cccc(C)c24)C3)CC1CC#N, the IC50 (curve of first compound, second compound 0.0316 µM) is reported as over 3160 nM, the IC50 [1] is reported as over 3160 nM and the IC50 [2] is reported as over 3160 nM. It also gave an IC50 [3] of over 3160 nM, an IC50 [4] of 190 nM and a viability, T/C (second compound 0.0316 µM, first compound 0.01 µM) of 100%. For the same molecule, the viability, T/C (second compound 0.0316 µM, first compound 0.0316 µM) was 92.7%, the viability, T/C (second compound 0.0316 µM, first compound 0.1 µM) was 82.4% and the viability, T/C (second compound 0.0316 µM, first compound 0.316 µM) was 71.3%. It also gave a viability, T/C (second compound 0.0316 µM, first compound 1 µM) of 67.5%, a viability, T/C (second compound 0.0316 µM, first compound 3.16 µM) of 56% and a viability, T/C [6] of 111%. For the same molecule, the viability, T/C [7] was 95.3%, the viability, T/C [15] was 94.6% and the viability, T/C [16] was 74.8%. For the same molecule, the viability, T/C [17] was 59%, the viability, T/C [18] was 54.1% and the viability, T/C [8] was 106%. The viability, T/C [9] was 96.6%, the viability, T/C [19] was 91.5% and the viability, T/C [20] was 69.4%. For the same molecule, the viability, T/C [21] was 59.3%, the viability, T/C [22] was 55.6% and the viability, T/C [10] was 90%. The viability, T/C [11] was 90.5%, the viability, T/C [23] was 77.8% and the viability, T/C [24] was 70.3%. The viability, T/C [25] was 64%, the viability, T/C [26] was 56.9% and the viability, T/C [12] was 76.2%. The viability, T/C [13] was 61%, the viability, T/C [27] was 56.8% and the viability, T/C [28] was 42.9%. For the same molecule, the viability, T/C [29] was 45.6% and the viability, T/C [30] was 48%.
